Experimental data published in patent publication US20080015236A1, “METHOD FOR PROMOTING MYOCARDIAL REGENERATION AND USES THEREOF” (priority 2006, published 2008).
Entries after “also recorded” stand apart in the source; their conditions may differ.

Test system: region of myocardium that includes a myocardial infarction
Experiment: Occlusion of the left anterior descending artery (myocardial infarction) in rats, daily intraperitoneal GM284, survival and histological analysis
Format: in vivo, Sprague Dawley rats
Source text: The left anterior descending artery (“LAD”) of 36 male adult Sprague Dawley rats weighing between 250 and 270 grams was occluded by placement of a ligature around the LAD and pulling it taught. The ligature was left in place to create a chronic ischemic area (myocardial infarction) distal to the occlusion. Following the closure of the chest and evacuation of the extra-pulmonary air to reverse the surgery-induced pneumothorax, the rats were returned to their cages for recovery, where they had ad libitum access to water and food for the duration of the experiment. Immediately following surgery the rats received the analgesic Buprenex at a dose of 1.5 mg/kg subcutaneously every 12 hours for the first 72 hours, and then on an as-needed basis.
The GM284 was dissolved to a final concentration of 5 mg/kg in phosphate buffered saline (“PBS”); 10 μM stock solution of GM284 in dimethyl sulfoxide (“DMSO”) was diluted in PBS. The vehicle was 250 μl of DMSO into 10 ml PBS.
Postsurgically, the rats were randomly assigned into six (6) experimental groups (A through F) with 6 animals in each group (n=36). “Vehicle” groups A, C and E received daily intraperitoneal injections of vehicle; and, “treatment” groups B, D, and F were treated with intraperitoneal injections of GM284.
Animals in treatment groups B, D, and F received daily intraperitoneal injections of GM284 at 5 mg/kg; and, animals in vehicle groups A, C and E received daily intraperitoneal injections of only the vehicle in which the GM284 was dissolved.
Animals in vehicle group A and treatment group B were treated for 2 weeks after LAD ligation and sacrificed.
Animals in vehicle group C and treatment group D were treated for 2 weeks following LAD ligation. Thereafter, the vehicle or GM284 injections were withdrawn and the animals were allowed to survive for an additional 2 weeks prior to sacrifice.
Animals in vehicle group E treatment group F were treated daily for 30 days following LAD ligation and then sacrificed.
Prior to sacrifice, the animals were anesthetized the hearts were harvested and processed for histological analysis by submersion-fixing in 4% paraformaldehyde at 4° C. overnight, followed by dehydration and embedding in paraffin. Eight-micra tissue sections were cut through the infarcted area and stained with H&E and trichrome. The histological sections were viewed by light microscopy, by a reviewer blind to the treatment groups, and evaluated for: • 1) the size of the infarct; • 2) the presence of viable cardiac myocytes; and, • 3) the extent of collateral vascularity.

[1] = two weeks after LAD occlusion, daily GM284 5 mg/kg i.p., versus vehicle, FIG. 2b

CCC(C)(C)C(=O)C(=O)N1CCC[C@H]1c1nnc([C@@H]2CCCN2C(=O)C(=O)C(C)(C)CC)o1 [GM284]
scarring / fibrosis (trichrome stain) (four weeks after LAD occlusion, daily treatment (group F), vehicle: extensive area of infarction, FIG. 3a): virtually no scarring; also recorded: minimal fibrosis | cardiac histology (H&E stain) (four weeks after LAD occlusion, daily treatment (group F), vehicle: extensive fibrosis, FIG. 3c): normal cardiac histology | histological appearance of the cardiac tissue after withdrawal of treatment (treated two weeks, survived additional two weeks without treatment (group D), compared with animals analyzed at cessation of treatment): did not significantly alter the histological appearance | survival over the length of the study (treatment groups B, D, F, 5 mg/kg daily intraperitoneal after LAD ligation, vehicle group mortality 25%): 100% | intramural vascularity (histology) [1]: increase in the intramural vascularity | viable myocardial cells (histology) [1]: increase in viable myocardial cells | extent of collateral vascularity (histology) (two weeks after LAD occlusion, daily GM284 5 mg/kg i.p., rare in vehicle treated tissue, FIG. 2b): numerous collateral vessels
